Reference: paper PMC9939733 (The Journal of Biological Chemistry, 2023)
Changes are numbered by the printed parent chain. Where two headings read alike, the source gives them in different places.

Columns and labels:
WT IDH1 [1] = molecular target: T1, WT IDH1 (Homo sapiens, UniProt O75874); assay: Absorbance assay, WT activity in the presence of equimolar DL-isocitrate (inhibition); format: biochemical; settings: […] isocitrate and […] test compound, 75 μM NADP+, 2.0 nM WT IDH1
T1 construct: made in house; host or cells: Escherichia coli BL21(DE3) pLyS
T1 sequence (O75874 whole entry): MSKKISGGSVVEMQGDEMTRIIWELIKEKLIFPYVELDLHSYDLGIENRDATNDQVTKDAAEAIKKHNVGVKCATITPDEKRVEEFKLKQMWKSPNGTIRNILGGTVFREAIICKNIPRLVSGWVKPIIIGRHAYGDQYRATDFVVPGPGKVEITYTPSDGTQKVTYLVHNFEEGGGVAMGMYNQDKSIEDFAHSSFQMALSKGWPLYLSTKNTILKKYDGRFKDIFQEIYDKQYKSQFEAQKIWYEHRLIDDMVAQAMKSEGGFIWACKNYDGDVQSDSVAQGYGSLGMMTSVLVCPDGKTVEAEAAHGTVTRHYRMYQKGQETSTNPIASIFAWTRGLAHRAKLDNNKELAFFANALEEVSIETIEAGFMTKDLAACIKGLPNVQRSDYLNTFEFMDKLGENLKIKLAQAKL
Procedure, shortened: (§1)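 Reactions were run as technical quadruplicates. Compounds were dispensed with a simultaneous pipettor, and each assay was started by adding reagent from a bulk dispenser.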

WT IDH2 [2] = molecular target: T2, WT IDH2 (Homo sapiens, UniProt P48735); assay: as above; format: biochemical; settings: […] isocitrate and […] test compound, 75 μM NADP+, 2.0 nM WT IDH2
T2 construct: made in house; host or cells: Sf21 insect cells (cell pellets prepared at Evotec)
T2 sequence (P48735 40-452): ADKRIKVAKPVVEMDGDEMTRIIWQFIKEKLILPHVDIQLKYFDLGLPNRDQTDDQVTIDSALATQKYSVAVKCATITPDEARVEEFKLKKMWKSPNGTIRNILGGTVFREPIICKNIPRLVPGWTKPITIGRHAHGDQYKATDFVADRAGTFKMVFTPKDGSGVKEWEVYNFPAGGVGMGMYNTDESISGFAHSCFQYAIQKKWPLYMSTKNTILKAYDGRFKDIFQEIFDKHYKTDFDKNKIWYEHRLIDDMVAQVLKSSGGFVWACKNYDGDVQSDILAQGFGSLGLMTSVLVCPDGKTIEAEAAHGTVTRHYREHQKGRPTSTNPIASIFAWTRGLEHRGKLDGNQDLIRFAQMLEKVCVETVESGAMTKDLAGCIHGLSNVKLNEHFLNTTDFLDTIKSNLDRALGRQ
Procedure, shortened: as §1

R132H IDH1 [3] = molecular target: T3, R132H IDH1 (Homo sapiens, UniProt O75874, R132H); assay: Absorbance assay (NADPH consumption), substrate turnover in the absence of 2OG; format: biochemical; parameters: made in house; host or cells: Escherichia coli BL21(DE3) pLyS; settings: no 2OG; […] test compound, 0.03 μM R132H IDH1, 50 μM NADPH; 2OG = 100
T3 sequence (O75874 whole entry R132H): as the sequence (O75874 whole entry) above, with R132H counted along it
Procedure, shortened: as §1

R140Q IDH2 [4] = molecular target: T4, R140Q IDH2 (Homo sapiens, UniProt P48735, R140Q); assay: Absorbance assay, variant activity in the presence of equimolar 2OG (inhibition screen); format: biochemical; settings: for activity [%] (%-substrate conversion after 20 min incubation): 6.0 mM 2OG and 6.0 mM test compound, 0.03 μM R140Q IDH2, 50 μM NADPH
T4 construct: made in house; host or cells: Sf21 insect cells (cell pellets prepared at Evotec)
T4 sequence (P48735 40-452 R140Q): T2 sequence (P48735 40-452) with R101Q
Procedure, shortened: as §1

R172K IDH2 [5] = molecular target: T5, R172K IDH2 (Homo sapiens, UniProt P48735, R172K); assay: as above; format: biochemical; settings: for activity [%] (%-substrate conversion after 20 min incubation): 1.0 mM 2OG and 1.0 mM test compound, 0.03 μM R172K IDH2, 50 μM NADPH
T5 construct: made in house; host or cells: Sf21 insect cells (cell pellets prepared at Evotec)
T5 sequence (P48735 40-452 R172K): T2 sequence (P48735 40-452) with R133K
Procedure, shortened: as §1

R132H IDH1 [6] = molecular target: T3, R132H IDH1; assay: Absorbance assay, IC50 determination; format: biochemical; parameters: made in house; host or cells: Escherichia coli BL21(DE3) pLyS
Method: (§2) The reactivity of WT IDH1/2 and oncogenic IDH1/2 variants was assayed at ambient temperature by continuously monitoring the concentration-dependent change in absorbance ([…]) of NADPH using a PheraStar FS or a CLARIOstar Plus plate reader (BMG Labtech). Enzyme reactions (60 μL total reaction volume) were performed in clear 384-well UV-STAR plates (Greiner Bio-one, #781801). Compounds were dispensed using a CyBio SDW-CW CyBi-Well Simultaneous Pipettor and assay started using a ThermoFisher Multidrop Combi reagent dispenser.
(§3) Final assay concentrations were as follows: 30 nM IDH1/2 variant and 50 μM NADPH. […] Reactions were performed as technical quadruplicates, and all assays were carried out in two independent duplicates. GraphPad Prism (version 5.04) was used for data analysis and to determine the IC50 values.

R132H IDH1 [7] = molecular target: T3, R132H IDH1; assay: Absorbance assay, variant activity in the presence of equimolar 2OG (inhibition screen); format: biochemical; parameters: made in house; host or cells: Escherichia coli BL21(DE3) pLyS; settings: […] 2OG and […] test compound, 0.03 μM R132H IDH1, 50 μM NADPH
Procedure, shortened: as §1

R140Q IDH2 [8] = molecular target: T4, R140Q IDH2; assay: Absorbance assay (NADPH consumption), substrate turnover in the absence of 2OG; format: biochemical; settings: no 2OG; 6.0 mM test compound, 0.03 μM R140Q IDH2, 50 μM NADPH; 2OG = 100
Procedure, shortened: as §1

R172K IDH2 [9] = molecular target: T5, R172K IDH2; assay: as above; format: biochemical; settings: no 2OG; 1.0 mM test compound, 0.03 μM R172K IDH2, 50 μM NADPH; 2OG = 100
Procedure, shortened: as §1

R140Q IDH2 [10] = molecular target: T4, R140Q IDH2; assay: Absorbance assay, IC50 determination; format: biochemical
Method: as §2, §3

R172K IDH2 [11] = molecular target: T5, R172K IDH2; assay: Absorbance assay, IC50 determination; format: biochemical
Method: as §2, §3

[12] = system: glutamic oxaloacetic aminotransferase; parameters: method as in earlier work; settings: ref [66]; cited from earlier work
FIH = settings: ref [22], [23]; cited from earlier work
AspH = settings: ref [22], [23]; cited from earlier work
WT IDH1 [13] = molecular target: T1, WT IDH1; assay: Absorbance assay, substrate activity in the absence of DL-isocitrate; format: biochemical; settings: no DL-isocitrate; […] test compound, 75 μM NADP+, 2.0 nM WT IDH1; compared to DL-isocitrate
Procedure, shortened: as §1

WT IDH2 [14] = molecular target: T2, WT IDH2; assay: as above; format: biochemical; settings: no DL-isocitrate; […] test compound, 75 μM NADP+, 2.0 nM WT IDH2; compared to DL-isocitrate
Procedure, shortened: as §1

Row | SMILES | activity [%] (%-substrate conversion after 20 min incubation) (WT IDH1 [1]) | activity [%] (%-substrate conversion after 20 min incubation) (WT IDH2 [2]) | activity [%] (%-substrate conversion after 20 min incubation) (R140Q IDH2 [4]) | activity [%] (%-substrate conversion after 20 min incubation) (R172K IDH2 [5]) | activity [%] (%-substrate conversion after 20 min incubation) (R132H IDH1 [7]) | inhibition of FIH (FIH) | activity [%] (%-substrate conversion after 20 min incubation) (WT IDH1 [13]) | activity [%] (%-substrate conversion after 20 min incubation) (WT IDH2 [14]) | further results
1 | O=C(O)CNC(=O)C(=O)O [NOG, N-oxalylglycine, reference compound] | 93 ± 2% | 93 ± 1% | 12 ± 7% | 13 ± 4% | < 10% | – | – | – | activity [%] (%-substrate conversion after 20 min incubation) (R132H IDH1 [3]): < 10%; inhibition (R140Q IDH2 [4]; equimolar 2OG (6.0 mM)): ≥ 90%; inhibition (R172K IDH2 [5]; equimolar 2OG (1.0 mM)): ≥ 90%; IC50 (R132H IDH1 [6]): ~188 µM; activity [%] (%-substrate conversion after 20 min incubation) (R140Q IDH2 [8]): < 10%; activity [%] (%-substrate conversion after 20 min incubation) (R172K IDH2 [9]): < 10%; IC50 (R140Q IDH2 [10]): ~621 µM; IC50 (R172K IDH2 [11]): ~161 µM
2 | CC(C)(CC(=O)C(=O)O)C(=O)O [compound 13, 4,4-dimethyl-2OG] | 106±4% | 101±7% | 117 ± 6% | 106 ± 6% | 118 ± 20% | does not inhibit | < 10% | < 10% | substrate efficiency compared with 2OG [12]: less efficient substrate; inhibition of AspH (AspH): efficient inhibitor
3 | CC1(C)c2ccccc2-c2ccc(CC(CC(=O)O)C(=O)C(=O)O)cc21 (racemic) [compound 11] | 98±2% | 96±2% | < 10% | < 10% | < 10% | potent inhibitor | < 10% | < 10% | IC50 (R132H IDH1 [6]; […] 2OG, 0.03 μM enzyme, 50 μM NADPH): ~1100 µM; IC50 (R140Q IDH2 [10]; 6.0 mM 2OG, 0.03 μM enzyme, 50 μM NADPH): ~1650 µM; IC50 (R172K IDH2 [11]; 1.0 mM 2OG, 0.03 μM enzyme, 50 μM NADPH): ~84 µM
